# Measurements from ChEMBL document CHEMBL5233265, “Recent advances in the design and development of formyl peptide receptor 2 (FPR2/ALX) agonists as pro-resolving agents with diverse therapeutic potential” (Eur J Med Chem, 2021).
# Experiments:
# Format in all cases: cell-based
# [1] = molecular target: T1, N-formyl peptide receptor 2 (Homo sapiens, UniProt P25090); experiment: Agonist activity at human FPR2 expressed in CHO cells assessed as cAMP level incubated for 1.5 hr by HTRF assay
# T1 sequence (P25090 whole entry): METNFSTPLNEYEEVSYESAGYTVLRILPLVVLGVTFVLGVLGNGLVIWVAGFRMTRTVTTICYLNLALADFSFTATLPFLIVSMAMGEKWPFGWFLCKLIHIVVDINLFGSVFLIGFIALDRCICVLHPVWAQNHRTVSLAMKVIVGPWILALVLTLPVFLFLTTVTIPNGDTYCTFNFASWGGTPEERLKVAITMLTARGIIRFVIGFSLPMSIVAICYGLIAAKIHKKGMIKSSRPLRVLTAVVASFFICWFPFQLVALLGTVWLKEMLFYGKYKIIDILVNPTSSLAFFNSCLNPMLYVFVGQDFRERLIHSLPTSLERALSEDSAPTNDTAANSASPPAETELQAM
# fMet-Leu-Phe receptor [2] = molecular target: T2, fMet-Leu-Phe receptor (Homo sapiens, UniProt P21462); experiment: Agonist activity at human FPR1 expressed in CHO cells assessed as cAMP level incubated for 1.5 hr by HTRF assay
# T2 sequence (P21462 whole entry): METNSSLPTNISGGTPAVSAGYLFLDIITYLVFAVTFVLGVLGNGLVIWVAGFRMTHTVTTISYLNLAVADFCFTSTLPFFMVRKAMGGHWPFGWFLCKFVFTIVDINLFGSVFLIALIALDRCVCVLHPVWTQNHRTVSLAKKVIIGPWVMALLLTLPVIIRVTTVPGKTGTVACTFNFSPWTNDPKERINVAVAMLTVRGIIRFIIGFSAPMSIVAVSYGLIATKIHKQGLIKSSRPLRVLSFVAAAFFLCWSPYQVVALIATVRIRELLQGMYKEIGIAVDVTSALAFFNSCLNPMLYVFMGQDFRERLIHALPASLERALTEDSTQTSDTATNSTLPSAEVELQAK
# [3] = molecular target: T3, N-formyl peptide receptor 2 (Homo sapiens) (UniProt P25090); experiment: Agonist activity at FPR2 (unknown origin) expressed in CHO/Galpha16 cells assessed as maximal calcium flux at 0.61 to 10000 nM by FLIPR assay relative to control; conditions: dose 0.61-10000 nM
# T3 sequence (whole entry): T1 sequence (P25090 whole entry)
# Homo sapiens = organism: Homo sapiens; experiment: Selectivity index, ratio of EC50 for agonist activity at FPR2 (unknown origin) expressed in CHO/Galpha16 cells to EC50 for FPR1 (unknown origin) expressed in CHO/Galpha16 cells
# [4] = molecular target: T4, fMet-Leu-Phe receptor (Homo sapiens) (UniProt P21462); experiment: Agonist activity at FPR1 (unknown origin) expressed in CHO/Galpha16 cells assessed as maximal calcium flux at 0.61 to 10000 nM by FLIPR assay relative to control; conditions: dose 0.61-10000 nM
# T4 sequence (whole entry): T2 sequence (P21462 whole entry)
# [5] = molecular target: T1, N-formyl peptide receptor 2; experiment: Agonist activity at human FPR2 expressed in CHO cells assessed as increase in calcium flux incubated for 50 mins by FLIPR calcium 5 dye based fluorescence assay
# fMet-Leu-Phe receptor [6] = molecular target: T2, fMet-Leu-Phe receptor; experiment: Agonist activity at human FPR1 expressed in CHO cells assessed as increase in calcium flux incubated for 50 mins by FLIPR calcium 5 dye based fluorescence assay
# [7] = molecular target: T3, N-formyl peptide receptor 2 (Homo sapiens); experiment: Agonist activity at human FPR2 transfected in HL-60 cells assessed as maximal intracellular calcium flux incubated for 30 mins by Fluo-4 AM dye based fluorometer analysis relative to control; conditions: filed as agonist
# fMet-Leu-Phe receptor [8] = molecular target: T2, fMet-Leu-Phe receptor; experiment: Agonist activity at human FPR1 transfected in HL-60 cells assessed as increase in intracellular calcium flux incubated for 30 mins by Fluo-4 AM dye based fluorometer analysis; conditions: hl-60
# [9] = molecular target: T1, N-formyl peptide receptor 2; experiment: Agonist activity at human FPR2 transfected in HL-60 cells assessed as increase in intracellular calcium flux incubated for 30 mins by Fluo-4 AM dye based fluorometer analysis
compound,measurement,setting,value
CS(=O)(=O)Nc1ccccc1-c1ccc(N2CCC[C@@H](NC(=O)Nc3ccc(C(F)(F)F)nc3)C2=O)cc1,EC50,[1],< 5 nM
same,EC50,fMet-Leu-Phe receptor [2]; cho,Not Active
CC1(C)CN(c2ccc(-c3ccccc3P(C)(C)=O)c(F)c2F)C(=O)[C@@H]1NC(=O)Nc1cnc(Cl)cn1,EC50,[1],57 nM
CCC[C@H](NC(=O)CNC(=O)Nc1ccc(Br)cc1)C(=O)O,Emax,[3],105%
same,Ratio EC50,Homo sapiens,62
same,Emax,[4],98%
CP(C)(=O)c1ccccc1-c1ccc(N2CC[C@@H](NC(=O)Nc3csc(Cl)c3)C2=O)c(F)c1F,EC50,[1],2.9 nM
O=C(Nc1ccccc1F)N[C@@H]1CCCN(c2ccc(-c3ccccc3F)cc2)C1=O,EC50,[1],40 nM
CC(C)C[C@H](NC(=O)CNC(=O)Nc1ccc(Br)cc1)C(=O)O,Emax,[3],91%
same,Ratio EC50,Homo sapiens,386
same,Emax,[4],100%
O=C(Nc1ccc(C(F)(F)F)cc1)N[C@@H]1CCCN(c2ccc(N3CC4(COC4)C3)cc2)C1=O,EC50,[1],10 nM
NC(=O)c1ccccc1-c1ccc(N2CCC[C@@H](NC(=O)Nc3ccc(Cl)cc3)C2=O)cc1,EC50,[1],< 5 nM
O=C(Nc1ccc(C(F)(F)F)cc1)N[C@@H]1CCCN(c2ccc(N3CCOCC3)cc2)C1=O,EC50,[1],< 10 nM
CP(C)(=O)c1ccccc1-c1ccc(N2CC3(CC3)[C@@H](NC(=O)Nc3ccc(Cl)cc3F)C2=O)c(F)c1F,EC50,fMet-Leu-Phe receptor [2]; read-out: EC50,> 5000 nM
O=C(Nc1ccc(C(F)(F)F)cc1)N[C@H]1CCCN(c2ccc(-c3ccccc3C(=O)O)cc2)C1=O,EC50,[1],40 nM
CC(C)C[C@H](NC(=O)CCNC(=O)Nc1ccc(Br)cc1)C(=O)O,Emax,[3],81%
same,Ratio EC50,Homo sapiens,74
same,Emax,[4],99%
Cc1cnc(NC(=O)N[C@@H]2CCCN(c3ccc(-c4ccccc4NS(C)(=O)=O)cc3F)C2=O)cn1,EC50,[1],22 nM
same,EC50,fMet-Leu-Phe receptor [2]; read-out: EC50,2000 nM
COc1cc(F)c([C@H]2CCN(CCC(F)F)C[C@@H]2NC(=O)Nc2ccc(Cl)cc2)c(F)c1 (relative stereo; form 2),EC50,[5],< 1 nM
same,EC50,fMet-Leu-Phe receptor [6]; cho,1 nM
COc1ccc([C@H]2CCNC(=O)[C@@H]2NC(=O)Nc2ccc(Cl)cc2)cc1,EC50,[5],< 1 nM
COc1ccc(NC(=O)N[C@H](Cc2ccc(C#N)cc2)C(=O)NCC2(c3ccc(O)cc3)CC2)cc1,Emax,[7],70%
same,EC50,fMet-Leu-Phe receptor [8],Not Active
same,EC50,[9]; read-out: EC50,7000 nM
CN1CCN(c2ccc(N3CCC[C@@H](NC(=O)Nc4ccc(C(F)(F)F)cc4)C3=O)cc2)CC1,EC50,[1],10 nM
COc1ccc([C@H]2CCN(Cc3ccccn3)C(=O)[C@@H]2NC(=O)Nc2ccc(F)cc2)cc1 (relative stereo),EC50,[5],< 1 nM
same,EC50,fMet-Leu-Phe receptor [6],1 nM
Cc1cccc(C2(NC(=O)N[C@@H]3C(=O)NC[C@H]3c3c(F)cc(Cl)cc3F)CC2)n1,EC50,[1],100 nM
same,EC50,fMet-Leu-Phe receptor [2]; cho,Not Active
CC(C)C(C(=O)O)C(C)NC(=O)Nc1ccc(Br)cc1 (stereo in doubt; 18),Emax,[3],89%
same,Ratio EC50,Homo sapiens,17
same,Emax,[4],94%
O=C(CNC(=O)Nc1ccc(Br)cc1)N[C@@H](Cc1ccccc1)C(=O)O,Emax,[3],197%
same,Ratio EC50,Homo sapiens,24
same,Emax,[4],97%
COc1cc(F)c([C@@H]2CN(CC3CC3)C(=O)[C@H]2NC(=O)NC2(c3cccc(C)n3)CC2)c(F)c1,EC50,[1],< 10 nM
same,EC50,fMet-Leu-Phe receptor [2]; cho,Not Active
COc1ccc(NC(=O)N[C@H](Cc2ccc(C#N)cc2)C(=O)NCC2(c3cccc(O)c3)CC2)cc1,Emax,[7],70%
same,EC50,fMet-Leu-Phe receptor [8],Not Active
same,EC50,[9]; read-out: EC50,7000 nM
CP(C)(=O)c1ccccc1-c1ccc(N2CC[C@@H](NC(=O)Nc3ccc(Cl)cc3)C2=O)c(F)c1F,EC50,[1],25 nM
NC(=O)c1ccccc1-c1ccc(N2CCC[C@H](NC(=O)Nc3ccc(C(F)(F)F)cc3)C2=O)cc1,EC50,[1],40 nM
N#Cc1ccc(C[C@H](NC(=O)Nc2ccc(O)cc2)C(=O)NCC2(c3ccccc3)CC2)cc1,EC50,fMet-Leu-Phe receptor [8],Not Active
same,EC50,[9]; hl-60,Not Active
O=C(Nc1ccc(C(F)(F)F)cc1)NC1CCCN(c2ccc(-c3ccccc3F)cc2)C1=O (racemic),EC50,[1],< 5 nM
O=C(Nc1ccc(C(F)(F)F)cc1)N[C@H]1CCCN(c2ccc(-c3ccccc3F)cc2)C1=O,EC50,[1],40 nM
CC(C)C(C(=O)O)C(C)NC(=O)Nc1ccc(Br)cc1 (stereo in doubt; 21),Emax,[4],93%
Cc1cccc(C2(NC(=O)N[C@@H]3C(=O)NC[C@H]3c3c(F)cc(Br)cc3F)CC2)n1,EC50,[1],10 nM
same,EC50,fMet-Leu-Phe receptor [2]; cho,Not Active
N#Cc1ccc(C[C@@H](NC(=O)Nc2ccc(O)cc2)C(=O)NCC2(c3ccccc3)CC2)cc1,EC50,fMet-Leu-Phe receptor [8],Not Active
same,EC50,[9]; hl-60,Not Active
O=C(Nc1ccc(C(F)(F)F)cc1)N[C@@H]1CCCN(c2ccc(-c3ccccc3F)cc2)C1=O,EC50,[1],< 5 nM
COc1cc(F)c([C@@H]2CNC(=O)[C@H]2NC(=O)NC2(c3cccc(C)n3)CC2)c(F)c1,EC50,[1],< 10 nM
same,EC50,fMet-Leu-Phe receptor [2]; cho,Not Active
CS(=O)(=O)Nc1ccccc1-c1ccc(N2CCC[C@@H](NC(=O)Nc3cnc(Cl)cn3)C2=O)cc1,EC50,[1],< 5 nM
same,EC50,fMet-Leu-Phe receptor [2]; cho,Not Active
CC(C)C(C(=O)O)C(C)NC(=O)Nc1ccc(Br)cc1 (stereo in doubt; 19),Emax,[3],56%
same,Ratio EC50,Homo sapiens,249
same,Emax,[4],103%
CS(=O)(=O)NCC1(c2ccc(N3CCC[C@@H](NC(=O)Nc4ccc(C(F)(F)F)nc4)C3=O)cc2)CCCC1,EC50,[1],< 100 nM
same,EC50,fMet-Leu-Phe receptor [2]; cho,Not Active
CC(C)C(C(=O)O)C(C)NC(=O)Nc1ccc(Br)cc1 (stereo in doubt; 20),Emax,[3],75%
same,Ratio EC50,Homo sapiens,101
same,Emax,[4],91%
COc1cc(F)c([C@H]2CCN(CCC(F)F)C[C@@H]2NC(=O)Nc2ccc(Cl)cc2)c(F)c1 (relative stereo; form 1),EC50,[5],1 nM
same,EC50,fMet-Leu-Phe receptor [6],1 nM
COc1ccc([C@@H]2CCN(Cc3ccccn3)C(=O)[C@@H]2NC(=O)Nc2ccc(F)cc2)cc1 (relative stereo),EC50,[5],1 nM
same,EC50,fMet-Leu-Phe receptor [6],1 nM
COc1ccc([C@H]2CCN(c3ccnnc3)C[C@@H]2NC(=O)Nc2ccc(Cl)cc2)cc1 (relative stereo),EC50,[5],1 nM
same,EC50,fMet-Leu-Phe receptor [6],1 nM
COc1cc(F)c([C@@H]2CNC(=O)[C@H]2Nc2nnc(-c3ccc(Cl)cc3)s2)c(F)c1,EC50,[1],< 40 nM
same,EC50,fMet-Leu-Phe receptor [2]; cho,Not Active
COc1cc(F)c([C@H]2CCN(CC3CC3)C(=O)[C@@H]2NC(=O)Nc2ccc(Cl)cc2)c(F)c1,EC50,[5],< 1 nM
same,EC50,fMet-Leu-Phe receptor [6],1 nM
NC(=O)c1ccccc1-c1ccc(N2CCC[C@@H](NC(=O)Nc3ccc(C(F)(F)F)cc3)C2=O)cc1,EC50,[1],< 5 nM
CC(=O)N1CCN(c2ccc(N3CCC[C@@H](NC(=O)Nc4ccc(C(F)(F)F)cc4)C3=O)cc2)CC1,EC50,[1],100 nM
COc1ccc([C@H]2CCN(Cc3cccnc3)C(=O)[C@@H]2NC(=O)Nc2ccc(F)cc2)cc1 (relative stereo),EC50,[5],1 nM
same,EC50,fMet-Leu-Phe receptor [6],1 nM
NC(=O)c1ccccc1-c1ccc(N2CCCC(NC(=O)Nc3ccc(C(F)(F)F)cc3)C2=O)cc1 (racemic),EC50,[1],40 nM
O=C(Nc1ccc(C(F)(F)F)cc1)N[C@@H]1CCCN(c2ccc(-c3ccccc3C(=O)O)cc2)C1=O,EC50,[1],5 nM
